Tests used:
[1] = test system: airway epithelial brushings; assay: Taqman / real-time PCR gene expression in airway epithelial brushings, fluticasone trial; assay type: in vivo, human
Protocol: Brushings yielded 1,300,000±800,000 cells of which 97±3% were epithelial. For microarray analysis, […] total epithelial RNA was amplified using NuGen Ovation RNA amplification system. Then 2.75 μg sscDNA was hybridized to Affymetrix U133 plus 2.0 arrays (>54,000 probe sets coding for 38,500 genes). Array images were analyzed using Affymetrix GeneChip Expression Analysis Software. Bioconductor^5 was used for quality control (affyPLM algorithm), preprocessing (RMA algorithm), cluster analysis, and linear modeling.^5-7 Raw array data are available from the Gene Expression Omnibus public database (http://www.ncbi.nlm.nih.gov/geo/, accession number pending). Selected microarray findings were confirmed by real-time PCR, enzyme linked immunosorbent assay (ELISA) or immunohistochemistry. In vitro studies of the effects of interleukin-13 (IL-13) on expression of selected genes were performed using primary airway epithelial cells grown at an air-liquid interface (additional detail in supplementary appendix).
In further analysis of the same dataset we have identified six genes (Table 4) which are differentially expressed in airway epithelial brushings from asthmatics asthma or altered by corticosteroid treatment of asthmatic subjects and which have not previously been implicated in asthma or in the mechanism of steroid benefit in asthma.

[2] = test system: serpinB2 protein; assay: ELISA for serpinB2 protein levels in bronchoalveolar lavage; assay type: in vivo, human; settings: Post-fluticasone (follow-up bronchoscopy, 1 week)
Excerpt: Periostin and serpin B2 have not previously been associated with asthma, and we examined their expression at the protein level. […] However, in asthmatics, serpinB2 levels increased in all subjects at the second bronchoscopy (Table 4s, supplementary appendix). The increase in serpinB2 at the second bronchoscopy likely reflects a pro-coagulation response to the minor bleeding that accompanied bronchial biopsy during the first bronchosocopy. ELISA for serpinB2 protein levels in bronchoalveolar lavage fluid was performed using a commercially available kit (Imubind PAI-2 ELISA, American Diagnostica Inc, Stamford Conn.) according to the manufacturer's directions.

[3] = one week of treatment, n = 16, greater than one indicates suppression

CCC(=O)O[C@]1(C(=O)SCF)[C@H](C)C[C@H]2[C@@H]3C[C@H](F)C4=CC(=O)C=C[C@]4(C)[C@@]3(F)[C@@H](O)C[C@@]21C [fluticasone, fluticasone propionate]
CST1 reduction by taqman ([1]; fluticasone arm as compared to the placebo arm): 6 fold | FLUTICASONE Change AVERAGE, CEACAM5 (ratio of gene expression before and after treatment) [1, 3]: 1.88 | FLUTICASONE Change AVERAGE, CST1 (ratio of gene expression before and after treatment) [1, 3]: 5.97 | FLUTICASONE Change AVERAGE, CST4 (ratio of gene expression before and after treatment) [1, 3]: 5.41 | FLUTICASONE Change AVERAGE, HDAC9 (ratio of gene expression before and after treatment) [1, 3]: 2.10 | FLUTICASONE Change AVERAGE, SERPINB1 (ratio of gene expression before and after treatment) [1, 3]: 2.31 | SerpinB2 protein levels in bronchoalveolar lavage, Mean [2]: 0.91 ng/mL

— patent US20070275925A1, “ASTHMA DIAGNOSIS AND THERAPY” (REGENTS OF THE UNIVERSITY OF CALIFORNIA, priority 2006, published 2007)
